Source: patent US11186587B2, “Compound as ACC inhibitor and use thereof” (NANJING SANHOME PHARMACEUTICAL CO., LTD., priority 2017, dated 2021)

How the values were obtained:
ACC1 = ACC1 (Homo sapiens (Human), UniProt Q13085); experiment: ACC1 enzyme activity assay (ADP-Glo); assay type: biochemical; details: ACC1 enzyme 2 nM working solution, room temperature
Method: (§1) Compound preparation: the compounds of the present disclosure prepared in the above examples and the control compound were respectively formulated into 10 mM with DMSO for use.
(§2) Preparation of 1× reaction buffer (pH=7.4): HEPES stock solutions (1 M), MgCl2 (1 M), BRIJ-35 (10%), potassium citrate buffer (1 M), BSA (10 mg/mL) and DTT (500 mM) were formulated to enzyme reaction buffer containing HEPES (50 mM), MgCl2 (2 mM), BRIJ-35 (0.01%), potassium citrate buffer (2 mM), BSA (50 Gg/mL) and DTT (2 mM).
4.5 μL of 2.2×ACC1 enzyme (2 nM) working solution was added to a 384-well plate; and then 0.5 μL of different concentrations of compound were added. The mixture was incubated at room temperature for 15 min.
(§3) Negative control group: menstruum containing 5% DMSO; positive control group: menstruum containing 100 nM ND-630. The average values of each concentration and the positive and negative controls were calculated, and the standard deviation was calculated. […] The inhibition rate data was fitted by nonlinear regression equation to calculate IC50 of each compound. The nonlinear regression equation was Y=lowest value+(highest value−lowest value)/(1+10^((Log IC50−X)×HillSlope)), among which X is logarithm of the compound concentration and Y is inhibition percent (%).

ACC2 = ACC2 (Homo sapiens (Human), UniProt O00763); experiment: ACC2 enzyme activity assay (ADP-Glo); assay type: biochemical; details: ACC2 enzyme 1.1 nM working solution, room temperature
Method: as §1, §2
The mixture was incubated at room temperature for 15 min.
as §3

Sequence of ACC2 (O00763 whole entry): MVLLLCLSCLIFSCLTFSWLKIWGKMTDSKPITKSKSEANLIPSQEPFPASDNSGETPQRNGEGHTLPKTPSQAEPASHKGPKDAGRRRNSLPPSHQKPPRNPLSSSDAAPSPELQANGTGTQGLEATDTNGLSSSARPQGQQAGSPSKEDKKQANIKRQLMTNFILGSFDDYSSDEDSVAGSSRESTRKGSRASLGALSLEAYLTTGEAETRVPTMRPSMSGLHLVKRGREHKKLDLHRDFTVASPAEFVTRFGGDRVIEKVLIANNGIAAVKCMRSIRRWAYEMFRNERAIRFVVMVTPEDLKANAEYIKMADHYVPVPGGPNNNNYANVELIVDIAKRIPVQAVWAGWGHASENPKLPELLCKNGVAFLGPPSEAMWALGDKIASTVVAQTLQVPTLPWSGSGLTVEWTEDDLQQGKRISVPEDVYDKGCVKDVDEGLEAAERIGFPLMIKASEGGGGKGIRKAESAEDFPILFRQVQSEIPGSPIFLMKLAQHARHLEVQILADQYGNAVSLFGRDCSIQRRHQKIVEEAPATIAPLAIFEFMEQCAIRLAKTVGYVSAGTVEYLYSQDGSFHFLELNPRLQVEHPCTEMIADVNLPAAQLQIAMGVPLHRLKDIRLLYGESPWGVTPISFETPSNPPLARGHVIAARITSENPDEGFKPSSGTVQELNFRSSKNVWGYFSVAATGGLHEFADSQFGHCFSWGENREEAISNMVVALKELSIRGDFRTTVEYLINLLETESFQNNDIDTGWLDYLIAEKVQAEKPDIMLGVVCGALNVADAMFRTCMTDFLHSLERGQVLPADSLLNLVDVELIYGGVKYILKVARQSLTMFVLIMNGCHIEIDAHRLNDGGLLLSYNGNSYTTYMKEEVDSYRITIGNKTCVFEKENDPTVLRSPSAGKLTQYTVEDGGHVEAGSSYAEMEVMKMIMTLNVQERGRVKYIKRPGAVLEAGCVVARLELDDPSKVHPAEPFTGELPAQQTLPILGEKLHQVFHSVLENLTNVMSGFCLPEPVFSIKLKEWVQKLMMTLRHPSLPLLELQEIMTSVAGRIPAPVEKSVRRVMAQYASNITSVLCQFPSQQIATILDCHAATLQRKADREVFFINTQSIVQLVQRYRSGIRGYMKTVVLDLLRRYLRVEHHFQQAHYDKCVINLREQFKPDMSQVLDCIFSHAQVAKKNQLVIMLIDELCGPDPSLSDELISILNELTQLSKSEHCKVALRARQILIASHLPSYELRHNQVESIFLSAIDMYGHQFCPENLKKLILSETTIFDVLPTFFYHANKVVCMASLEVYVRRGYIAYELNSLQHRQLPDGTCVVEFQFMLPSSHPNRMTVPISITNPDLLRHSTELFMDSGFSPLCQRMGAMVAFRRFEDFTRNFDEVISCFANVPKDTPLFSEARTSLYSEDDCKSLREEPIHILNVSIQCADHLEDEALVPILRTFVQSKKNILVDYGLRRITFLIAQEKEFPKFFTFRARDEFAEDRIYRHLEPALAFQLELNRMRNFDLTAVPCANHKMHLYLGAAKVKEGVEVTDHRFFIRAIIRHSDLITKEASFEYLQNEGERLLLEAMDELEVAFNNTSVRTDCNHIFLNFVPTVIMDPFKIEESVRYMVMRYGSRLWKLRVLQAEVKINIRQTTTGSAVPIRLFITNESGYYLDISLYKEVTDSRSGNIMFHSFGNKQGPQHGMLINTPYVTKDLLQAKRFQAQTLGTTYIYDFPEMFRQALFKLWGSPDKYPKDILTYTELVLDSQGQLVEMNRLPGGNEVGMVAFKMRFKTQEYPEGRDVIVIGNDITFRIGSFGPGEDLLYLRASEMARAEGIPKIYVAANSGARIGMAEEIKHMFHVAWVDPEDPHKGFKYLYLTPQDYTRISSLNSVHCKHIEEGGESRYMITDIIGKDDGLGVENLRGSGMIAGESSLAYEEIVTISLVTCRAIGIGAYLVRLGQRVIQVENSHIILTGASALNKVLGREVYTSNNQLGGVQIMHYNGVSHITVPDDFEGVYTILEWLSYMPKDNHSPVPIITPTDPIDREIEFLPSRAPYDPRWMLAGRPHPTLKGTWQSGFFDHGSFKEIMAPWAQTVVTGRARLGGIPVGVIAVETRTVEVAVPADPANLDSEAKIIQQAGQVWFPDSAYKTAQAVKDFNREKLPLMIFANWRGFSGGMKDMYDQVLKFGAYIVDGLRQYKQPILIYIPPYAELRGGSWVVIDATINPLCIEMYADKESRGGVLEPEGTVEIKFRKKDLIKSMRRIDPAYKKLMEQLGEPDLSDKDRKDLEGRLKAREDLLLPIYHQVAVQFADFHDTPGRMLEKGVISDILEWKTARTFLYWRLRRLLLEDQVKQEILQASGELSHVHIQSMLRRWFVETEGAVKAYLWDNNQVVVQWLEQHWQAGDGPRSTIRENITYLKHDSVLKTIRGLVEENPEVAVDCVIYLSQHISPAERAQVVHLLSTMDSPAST

Compound | IC50 (ACC1) [nM] | IC50 (ACC2) [nM]
COc1ccccc1C(Cn1c(=O)n(C2CN(C(=O)c3ncc[nH]3)C2)c(=O)c2c(C)c(-c3ncco3)sc21)OC1CCOCC1 (stereo not shown) [Example 14] | 1.69 | 7.85
COc1ccccc1C(Cn1c(=O)n(C2CN(C(=O)N3CC(C)(O)C3)C2)c(=O)c2c(C)c(-c3ncco3)sc21)OC1CCOCC1 (stereo not shown) [Example 16, 3-(1-(3-Hydroxy-3-methylazetidin-1-oyl)azetidin-3-yl)-1-(2-(2-methoxyphenyl)-2-((tetrahydro-2H-pyran-4-yl)oxy)ethyl)-5-methyl-6-(oxazol-2-yl)thieno[2,3-d]pyrimidine-2,4(1H,3H)-dione] | 6.89 | –
COc1ccccc1C(Cn1c(=O)n(C2CN(S(C)(=O)=O)C2)c(=O)c2c(C)c(-c3ncco3)sc21)OC1CCOCC1 (stereo not shown) [Example 9, 1-(2-(2-methoxyphenyl)-2-((tetrahydro-2H-pyran-4-yl)oxy)ethyl)-5-methyl-3-(1-(methylsulfonyl)azetidin-3-yl)-6-(oxazol-2-yl)thieno[2,3-d]pyrimidine-2,4(1H,3H)-dione] | 2.03 | 7.92
COc1ccccc1C(Cn1c(=O)n(-c2cc(C(=O)O)ccc2OC)c(=O)c2c(C)c(-c3ncco3)sc21)OC1CCOCC1 (stereo not shown) [Example 27] | 11.8 | –
COc1ccccc1C(Cn1c(=O)n(-c2cccc(C(=O)O)c2OC)c(=O)c2c(C)c(-c3ncco3)sc21)OC1CCOCC1 (stereo not shown) [Example 29, 2-Methoxy-3-(1-(2-(2-methoxyphenyl)-2-((tetrahydro-2H-pyran-4-yl)oxy)ethyl)-5-methyl-6-(oxazol-2-yl)-2,4-dioxo-1,4-dihydrothieno[2,3-d]pyrimidin-3(2H)-yl)benzoic Acid] | 2.13 | 14.1
COc1ccccc1C(Cn1c(=O)n(C(C)(C)C(=O)O)c(=O)c2c(C)c(-c3ncco3)sc21)N1CCCCC1 (stereo not shown) [Example 18, 2-(1-(2-(2-methoxyphenyl)-2-(piperidin-1-yl)ethyl)-5-methyl-6-(oxazol-2-yl)-2,4-dioxo-1,4-dihydrothieno[2,3-d]pyrimidin-3(2H)-yl)-2-methylpropionic Acid] | > 1000 | –
COc1ccccc1C(Cn1c(=O)n(C2CN(C(=O)C3CC3)C2)c(=O)c2c(C)c(-c3ncco3)sc21)OC1CCOCC1 (stereo not shown) [Example 8, 3-(1-(cyclopropanecarbonyl)azetidin-3-yl)-1-(2-(2-methoxyphenyl)-2-((tetrahydro-2H-pyran-4-yl)oxy)ethyl)-5-methyl-6-thieno[2,3-d]pyrimidine-2,4(1H,3H)-dione] | 1.12 | 13.1
COc1ccccc1C(Cn1c(=O)n(C2CN(C(=O)c3ccccc3)C2)c(=O)c2c(C)c(-c3ncco3)sc21)OC1CCOCC1 (stereo not shown) [Example 11, 3-(1-benzoylazetidin-3-yl)-1-(2-(2-methoxyphenyl)-2-((tetrahydro-2H-pyran-4-yl)oxy)ethyl)-5-methyl-6-(oxazol-2-yl)thieno[2,3-d]pyrimidine-2,4(1H,3H)-dione] | 4.5 | –
COc1ccccc1C(Cn1c(=O)n(C(C)(C)C(=O)O)c(=O)c2c(C)c(-c3ncco3)sc21)OC1CCN(C)CC1 (stereo not shown) [Example 19, 2-(1-(2-(2-methoxyphenyl)-2-((1-methylpiperidin-4-yl)oxy)ethyl)-5-methyl-6-(oxazol-2-yl)-2,4-dioxo-1,4-dihydrothieno[2,3-d]pyrimidin-3(2H)-yl)-2-methylpropionic Acid] | 23.3 | –
COc1ccccc1C(Cn1c(=O)n(C(C)(C)C(=O)O)c(=O)c2c(C)c(-c3ncco3)sc21)OC1CCN(S(C)(=O)=O)CC1 (stereo not shown) [Example 22] | 0.63 | 5.13
COc1ccccc1C(Cn1c(=O)n(C(C)(C)C(=O)O)c(=O)c2c(C)c(-c3ncco3)sc21)OC1CCNCC1 (stereo not shown) [Example 17] | 7.66 | –
COc1ccccc1C(Cn1c(=O)n(-c2c(C)ccn3ccnc23)c(=O)c2c(C)c(-c3ncco3)sc21)OC1CCOCC1 (stereo not shown) [Example 5, 1-(2-(2-methoxyphenyl)-2-((tetrahydro-2H-pyran-4-yl)oxy)ethyl)-5-methyl-3-(7-methylimidazo[1,2-a]pyridin-8-yl)-6-(oxazol-2-yl)thieno[2,3-d]pyrimidine-2,4(1H, 3H)-diketone] | 38.5 | –
COc1ccccc1C(Cn1c(=O)n(C2CN(C(=O)c3ccccn3)C2)c(=O)c2c(C)c(-c3ncco3)sc21)OC1CCOCC1 (stereo not shown) [Example 13, 1-(2-(2-methoxyphenyl)-2-((tetrahydro-2H-pyran-4-yl)oxy)ethyl)-5-methyl-6-(oxazol-2-yl)-3-(1-pyridineformylazetidin-3-yl)thieno[2,3-d]pyrimidine-2,4(1H,3H)-dione] | 2.33 | 11.6
COc1ccccc1C(Cn1c(=O)n(-c2cc(C(=O)O)ccc2F)c(=O)c2c(C)c(-c3ncco3)sc21)OC1CCOCC1 (stereo not shown) [Example 30, 4-Fluoro-3-(1-(2-(2-methoxyphenyl)-2-((tetrahydro-2H-pyran-4-yl)oxy)ethyl)-5-methyl-6-(oxazol-2-yl)-2,4-dioxo-1,4-dihydrothieno[2,3-d]pyrimidin-3(2H)-yl)benzoic Acid] | 7.97 | –
COc1ccccc1C(Cn1c(=O)n(-c2ccc(C(=O)O)cc2OC)c(=O)c2c(C)c(-c3ncco3)sc21)OC1CCOCC1 (stereo not shown) [Example 26, 3-methoxy-4-(1-(2-(2-methoxyphenyl)-2-((tetrahydro-2H-pyran-4-yl)oxy)ethyl)-5-methyl-6-(oxazol-2-yl)-2,4-dioxo-1,4-dihydrothieno[2,3-d]pyrimidin-3(2H)-yl)benzoic Acid] | 0.87 | 10.3
COc1ccccc1C(Cn1c(=O)n(C2CNC2)c(=O)c2c(C)c(-c3ncco3)sc21)OC1CCOCC1 (stereo not shown) [Example 6, 3-(azetidin-3-yl)-1-(2-(2-methoxyphenyl)-2-((tetrahydro-2H-pyran-4-yl)oxy)ethyl)-5-methyl-6-(oxazol-2-yl)thieno[2,3-d]pyrimidine-2,4(1H,3H)-dione] | 2.81 | 9.64
CCS(=O)(=O)N1CC(n2c(=O)c3c(C)c(-c4ncco4)sc3n(CC(OC3CCOCC3)c3ccccc3OC)c2=O)C1 (stereo not shown) [Example 10, 3-(1-(ethylsulfonyl)azetidin-3-yl)-1-(2-(2-methoxyphenyl)-2-((tetrahydro-2H-pyran-4-yl)oxy)ethyl)-5-methyl-6-(oxazol-2-yl)thieno[2,3-d]pyrimidine-2,4(1H, 3H)-dione] | 1.35 | 6.85
COc1ccccc1C(Cn1c(=O)n(C(C)(C)C(=O)O)c(=O)c2c(C)c(-c3ncco3)sc21)OC1CN(C(C)=O)C1 (stereo not shown) [Example 23] | 11.5 | –
COc1ccccc1C(Cn1c(=O)n(C2CC(OCCF)C2)c(=O)c2c(C)c(-c3ncco3)sc21)OC1CCOCC1 (stereo not shown) [Example 31] | 136 | –
COc1ccccc1C(Cn1c(=O)n(C2CN(C(=O)N3CCOCC3)C2)c(=O)c2c(C)c(-c3ncco3)sc21)OC1CCOCC1 (stereo not shown) [Example 12, 1-(2-(2-methoxyphenyl)-2-((tetrahydro-2H-pyran-4-yl)oxy)ethyl)-5-methyl-3-(1-(morpholine-4-formyl)azetidin-3-yl)-6-(oxazol-2-yl)thieno[2,3-d]pyrimidine-2,4(1H,3H)-dione] | 1.22 | 8.04
COc1ccccc1[C@H](Cn1c(=O)n([C@H]2C[C@](C)(C(=O)O)C2)c(=O)c2c(C)c(-c3ncco3)sc21)OC1CCOCC1 [Example 3, (1R,3r)-3-(1-((R)-2-(2-methoxyphenyl)-2-((tetrahydro-2H-pyran-4-yl)oxy)ethyl)-5-methyl-6-(oxazol-2-yl)-2,4-dioxo-1,4-dihydrothieno[2,3-d]pyrimidine-3(2H)-yl)-1-methylcyclobutanecarboxylic Acid] | 1 | 11.9
COc1ccccc1C(Cn1c(=O)n(C(C)(C)C(=O)O)c(=O)c2c(C)c(-c3ncco3)sc21)OC1CCN(C(=O)C2CC2)CC1 (stereo not shown) [Example 21] | 0.7 | –
COc1ccccc1C(Cn1c(=O)n(-c2cccc(C(=O)O)c2F)c(=O)c2c(C)c(-c3ncco3)sc21)OC1CCOCC1 (stereo not shown) [Example 28, 2-Fluoro-3-(1-(2-(2-methoxyphenyl)-2-((tetrahydro-2H-pyran-4-yl)oxy)ethyl)-5-methyl-6-(oxazol-2-yl)-2,4-dioxo-1,4-dihydrothieno[2,3-d]pyrimidin-3(2H)-yl)benzoic Acid] | 1.48 | 7.8
COc1ccccc1C(Cn1c(=O)n(C2CC(F)(F)C2)c(=O)c2c(C)c(-c3ncco3)sc21)OC1CCOCC1 (stereo not shown) [Example 2, 3-(3,3-Difluorocyclobutyl)-1-(2-(2-methoxyphenyl)-2-((tetrahydro-2H-pyran-4-yl)oxy)ethyl)-5-methyl-6-(oxazol-2-yl)thieno[2,3-d]pyrimidine-2,4(1H,3H)-dione] | 8.7 | –
COc1ccccc1C(Cn1c(=O)n(C2CN(C(=O)N3CC(C)(C(=O)O)C3)C2)c(=O)c2c(C)c(-c3ncco3)sc21)OC1CCOCC1 (stereo not shown) [Example 15, 1-(3-(1-(2-(2-methoxyphenyl)-2-((tetrahydro-2H-pyran-4-yl)oxy)ethyl)-5-methyl-6-(oxazol-2-yl)-2,4-dioxo-1,2-dihydrothieno[2,3-d]pyrimidin-3 (4H)-yl)azetidine-1-carbonyl)-3-methylazetidine-3-carboxylic Acid] | 8.79 | –
